The test system of the experiment is BDF1 mice, P388 leukemia ip, median survival T/C. Put plainly: NCI In Vivo Anticancer Drug Screen. Data for tumor model P388 Leukemia (intraperitoneal) in B6D2F1 (BDF1) mice. The following applies: endpoint: median survival time, higher = longer survival. An outline of the steps:
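Mice carrying the transplantable tumour receive compound or vehicle. Survival is followed in each arm, and the treated measure is divided by the vehicle measure.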

Setting [1] is: dose: 12.5 mg/kg/injection, schedule: Q01DX009 (ip), vehicle: Klucel (hydroxypropylcellulose) (HPC).
Where [2] appears, read: dose: 25.0 mg/kg/injection, schedule: Q01DX009 (ip), vehicle: Klucel (hydroxypropylcellulose) (HPC).
The mark [3] stands for this setting: dose: 50.0 mg/kg/injection, schedule: Q01DX009 (ip), vehicle: Klucel (hydroxypropylcellulose) (HPC).
Setting [4] is: dose: 100.0 mg/kg/injection, schedule: Q01DX009 (ip), vehicle: Klucel (hydroxypropylcellulose) (HPC).
The mark [5] stands for this setting: dose: 100.0 mg/kg/injection, schedule: Q04DX003 (ip), vehicle: saline.
[6] abbreviates: dose: 100.0 mg/kg/injection, schedule: Q04DX003 (ip), vehicle: saline with Tween-80.
Where [7] appears, read: dose: 200.0 mg/kg/injection, schedule: Q04DX003 (ip), vehicle: saline with Tween-80.
Where [8] appears, read: dose: 50.0 mg/kg/injection, schedule: Q01DX009 (ip), vehicle: saline.
The mark [9] stands for this setting: dose: 200.0 mg/kg/injection, schedule: Q01DX009 (ip), vehicle: Klucel (hydroxypropylcellulose) (HPC).
The mark [10] stands for this setting: dose: 50.0 mg/kg/injection, schedule: Q04DX003 (ip), vehicle: saline sonified.
Where [11] appears, read: dose: 50.0 mg/kg/injection, schedule: Q01DX009 (ip), vehicle: water.
The mark [12] stands for this setting: dose: 50.0 mg/kg/injection, schedule: Q04DX003 (ip), vehicle: water.
[13] abbreviates: dose: 100.0 mg/kg/injection, schedule: Q04DX003 (ip), vehicle: water.
The mark [14] stands for this setting: dose: 200.0 mg/kg/injection, schedule: Q04DX003 (ip), vehicle: water.
Where [15] appears, read: dose: 200.0 mg/kg/injection, schedule: Q01DX009 (ip), vehicle: saline with Tween-80.
[16] abbreviates: dose: 400.0 mg/kg/injection, schedule: Q01DX009 (ip), vehicle: saline with Tween-80.

Values joined by “and” are separate entries in the source; they are usually repeats but may differ in a detail not shown here. Equal values may be shown once. Inconclusive results and toxic doses are left out.

The values below come from PubChem BioAssay AID328 (DTP/NCI, 2004).

`C[n+]1ccc(Nc2ccc(NC(=O)c3ccc(C(=O)Nc4ccc(Nc5cc[n+](C)c(N)n5)cc4)cc3)cc2)nc1N`: the T/C was 180 % of control (dose: 6.3 mg/kg/injection, schedule: Q01DX007 (ip), vehicle: Klucel (hydroxypropylcellulose) (HPC)); 155 % of control (dose: 6.3 mg/kg/injection, schedule: Q01DX009 (ip), vehicle: saline); 180 % of control (dose: 9.6 mg/kg/injection, schedule: Q01DX007 (ip), vehicle: Klucel (hydroxypropylcellulose) (HPC)); 161 % of control (dose: 9.6 mg/kg/injection, schedule: Q01DX009 (ip), vehicle: saline); 190 % of control under setting [1]; 175 % of control (dose: 14.0 mg/kg/injection, schedule: Q01DX007 (ip), vehicle: Klucel (hydroxypropylcellulose) (HPC)). For the same compound, the T/C (dose: 14.0 mg/kg/injection, schedule: Q01DX009 (ip), vehicle: saline) was 150 % of control; the T/C under setting [2] was 172 % of control; the T/C under setting [3] was 204 % of control; the T/C under setting [4] was 259 % of control; the T/C under setting [5] was 172 % of control; the T/C (dose: 200.0 mg/kg/injection, schedule: Q04DX003 (ip), vehicle: saline) is 163 % of control.

For `Cc1ccc(NC(=O)C2CCC(C)(C(=O)O)C2(C)C)cc1` (centres undefined), the T/C by setting is: (dose: 50.0 mg/kg/injection, schedule: Q04DX003 (ip), vehicle: saline with Tween-80) 109 % of control; under setting [6], 90 % of control; under setting [7], 104 % of control.

As for `CNC(=S)N/N=C\C(=N/NC(=S)NC)c1ccco1`, the T/C is, setting by setting: (dose: 15.0 mg/kg/injection, schedule: Q01DX009 (ip), vehicle: saline with Tween-80) 100 % of control; (dose: 30.0 mg/kg/injection, schedule: Q01DX009 (ip), vehicle: saline with Tween-80) 98 % of control.

As for `CC(Cc1ccccc1)NC1CC2CCC1C2` (centres undefined), the T/C runs as follows: (dose: 6.25 mg/kg/injection, schedule: Q01DX009 (ip), vehicle: Klucel (hydroxypropylcellulose) (HPC)) 104 % of control; under setting [1], 104 % of control; under setting [2], 113 % of control.

With `CCCCCCCCCCCCCCCCCCNC(=O)Nc1ccc(CC)cc1`, the T/C is, setting by setting: under setting [6], 90 % of control; under setting [7], 104 % of control; (dose: 400.0 mg/kg/injection, schedule: Q04DX003 (ip), vehicle: saline with Tween-80) 95 % of control.

Take `CNC(=O)C(C)C1C(=O)/C(=C(O)/C=C/C(C)=C\C(C)C2OC3(C)OC(C=CC34CO4)C2C)C(=O)N1C1CCC(O)C(C)O1` (centres undefined): the T/C is 100 % of control under setting [8] and 109 % of control under setting [9].

`COc1ccc([I+]c2ccc(OC)cc2)cc1`: the T/C (dose: 1.56 mg/kg/injection, schedule: Q01DX009 (ip), vehicle: saline) was 100 % of control; the T/C (dose: 3.13 mg/kg/injection, schedule: Q01DX009 (ip), vehicle: saline) was 100 % of control; the T/C (dose: 6.25 mg/kg/injection, schedule: Q01DX009 (ip), vehicle: saline) was 109 % of control; the T/C (dose: 12.5 mg/kg/injection, schedule: Q04DX003 (ip), vehicle: saline sonified) was 100 % of control; the T/C (dose: 25.0 mg/kg/injection, schedule: Q04DX003 (ip), vehicle: saline sonified) was 100 % of control; the T/C under setting [10] is 100 % of control.

`Cc1nc(C(=O)O)c(=O)[nH]c1C`: the T/C was 114 % of control under setting [11]; 94 % of control under setting [12]; 122 % of control (dose: 100.0 mg/kg/injection, schedule: Q01DX009 (ip), vehicle: water); 105 % of control under setting [13]; 121 % of control (dose: 200.0 mg/kg/injection, schedule: Q01DX009 (ip), vehicle: water); 100 % of control under setting [14].

Take `C(=C/c1ccc(/C=C/c2ccccc2)cc1)/c1ccccc1`: the T/C was 100 % of control (dose: 65.0 mg/kg/injection, schedule: Q01DX009 (ip), vehicle: Klucel (hydroxypropylcellulose) (HPC)); 111 % of control (dose: 66.7 mg/kg/injection, schedule: Q01DX009 (ip), vehicle: Klucel (hydroxypropylcellulose) (HPC)); 94 % of control and 95 % of control under setting [4]; 90 % of control (dose: 100.0 mg/kg/injection, schedule: Q04DX003 (ip), vehicle: Klucel (hydroxypropylcellulose) (HPC)); 100 % of control and 116 % of control (dose: 150.0 mg/kg/injection, schedule: Q01DX009 (ip), vehicle: Klucel (hydroxypropylcellulose) (HPC)); 110 % of control (dose: 200.0 mg/kg/injection, schedule: Q04DX003 (ip), vehicle: Klucel (hydroxypropylcellulose) (HPC)). In addition, the T/C by setting is: (dose: 400.0 mg/kg/injection, schedule: Q01DX009 (ip), vehicle: Klucel (hydroxypropylcellulose) (HPC)) 113 % of control; (dose: 400.0 mg/kg/injection, schedule: Q04DX003 (ip), vehicle: Klucel (hydroxypropylcellulose) (HPC)) 105 % of control.

Turning to `O=C(CS)OCCOC(=O)CS`, the T/C reads like this: under setting [2], 104 % of control; (dose: 25.0 mg/kg/injection, schedule: Q04DX003 (ip), vehicle: saline) 109 % of control; under setting [3], 100 % of control; (dose: 50.0 mg/kg/injection, schedule: Q04DX003 (ip), vehicle: saline) 104 % of control; under setting [4], 95 % of control; under setting [5], 95 % of control.

For `COc1ccc(/C=C/c2ccc3ccccc3[n+]2C)c(OC)c1OC`, the T/C (dose: 5.0 mg/kg/injection, schedule: Q01DX009 (ip), vehicle: Klucel (hydroxypropylcellulose) (HPC)) was 109 % of control.

Take `COc1cc(NC(C)CCCN)c2nccc(C)c2c1` (centres undefined): the T/C (dose: 12.5 mg/kg/injection, schedule: Q01DX009 (ip), vehicle: saline) is 101 % of control; the T/C (dose: 25.0 mg/kg/injection, schedule: Q01DX009 (ip), vehicle: saline) is 101 % of control; the T/C under setting [8] is 90 % of control and 107 % of control; the T/C (dose: 100.0 mg/kg/injection, schedule: Q01DX009 (ip), vehicle: saline) was 88 % of control.

On to `CN1CCN(C(=O)Nc2ccc(N=Nc3ccccc3)cc2)CC1`, for which the T/C runs as follows: (dose: 4.16 mg/kg/injection, schedule: Q01DX009 (ip), vehicle: saline with Tween-80) 100 % of control; (dose: 6.25 mg/kg/injection, schedule: Q01DX009 (ip), vehicle: saline with Tween-80) 90 % of control; (dose: 9.38 mg/kg/injection, schedule: Q01DX009 (ip), vehicle: saline with Tween-80) 90 % of control; under setting [10], 95 % of control; (dose: 100.0 mg/kg/injection, schedule: Q04DX003 (ip), vehicle: saline sonified) 100 % of control.

On to `Clc1ccc(-c2ncnc3c2Cc2ccccc2-3)cc1`, for which the T/C is 112 % of control (dose: 100.0 mg/kg/injection, schedule: Q01DX009 (ip), vehicle: saline with Tween-80); 116 % of control under setting [15]; 100 % of control under setting [16].

Regarding `O=S1(=O)CCN(C2CCCCCC2)CC1`, the T/C under setting [3] is 106 % of control, the T/C under setting [4] was 111 % of control and the T/C under setting [9] was 109 % of control.

Consider `NN=C1CCC(=NN)CC1`, for which the T/C is 100 % of control (dose: 12.5 mg/kg/injection, schedule: Q01DX009 (ip), vehicle: water); 105 % of control and 109 % of control (dose: 25.0 mg/kg/injection, schedule: Q01DX009 (ip), vehicle: water); 90 % of control and 104 % of control (dose: 25.0 mg/kg/injection, schedule: Q04DX003 (ip), vehicle: water); 103 % of control and 113 % of control and 114 % of control under setting [11]; 95 % of control and 114 % of control and 118 % of control under setting [12]; 102 % of control and 111 % of control under setting [13]. Also, the T/C under setting [14] was 92 % of control.

As for `O=C(NNC1CCCCC1)c1ccccc1`, the T/C (dose: 25.0 mg/kg/injection, schedule: Q01DX009 (ip), vehicle: saline with Tween-80) is 95 % of control.

Turning to `Clc1ccc(COC(Cn2ccnc2)c2ccc(Cl)cc2Cl)c(Cl)c1` (centres undefined), the T/C was 118 % of control (dose: 18.7 mg/kg/injection, schedule: Q01DX009 (ip), vehicle: saline with Tween-80); 118 % of control (dose: 75.0 mg/kg/injection, schedule: Q01DX009 (ip), vehicle: saline with Tween-80); 108 % of control under setting [15]; 108 % of control under setting [16].
